# From patent publication US20240252506A1 (Hoffmann-La Roche Inc., priority 2021, published 2024)
# Test system: Escherichia coli ATCC 25922
# Test: Minimal Inhibitory Concentration (MIC) determination, broth microdilution (CLSI M07-A10)
# Assay type: cell-based
# Details: Escherichia coli, ATCC25922, strain Escherichia coli ATCC 25922, 18-24 hours at 35±2° C., lowest concentration for complete growth inhibition (no visible growth), read-out: Escherichia coli growth inhibition MIC
# Experimental: Minimal Inhibitory Concentration (MIC) Determination:
# The MIC of antibacterial compounds against multiple species and strains was determined using the broth microdilution method according to M07-A10 Clinical and Laboratory Standards Institute (CLSI) guidelines, using the appropriate broth medium. In short, the compound plates were prepared by dispensing 100 μL of each stock solution in the first well of a 96 well microtiter plate (MTP) at a concentration 100-fold higher than the final concentration desired in broth. Eleven serial 2-fold dilutions of the highest concentration were made in DMSO for new compounds and in water (or appropriate solution) for reference compounds [2]. 1 μL of each well was transferred in a new MTP, which served as the test plate by subsequent inoculation. This bacterial suspension was prepared from strains that were first sub-cultured on agar plates and incubated for 18-24 hours as appropriate. Following incubation, the inoculum was prepared from isolated colonies and adjusted to 0.5 McFarland turbidity standard (1 to 2×10^8 Colony Forming Units (CFU)/mL) in 0.9% saline. The bacterial suspension was then diluted 1:200 in appropriate sterile medium and within 15 minutes 100 μL/well were dispensed. Negative controls (lack of bacterial cells) and growth control wells (lack of compound) were included in all plates. MTPs were incubated for 18-24 hours at 35±2° C. in ambient air. The MIC value of each compound, expressed as μg/mL, was determined as the lowest concentration required for complete growth inhibition (no visible growth). • [1] CLSI (2015) Methods for dilution antimicrobial susceptibility tests for bacteria that grow aerobically; Approved Standard, Tenth Edition. CLSI Document M7-A10 (ISBN 1-56238-987-4). Wayne, PA: Clinical and Laboratory Standards Institute, 19087, USA. • [2] CLSI (2017) Performance Standards for Antimicrobial Susceptibility Testing; Twenty-Fifth Informational Supplement. CLSI Document M100-S27, CLSI, Wayne, Pennsylvania 19087, USA.
# Table 1 provides the Minimal Inhibitory Concentrations (MIC) in micrograms per millilitre of the compounds of present invention obtained against the strain Escherichia coli ATCC 25922.
row,MIC,SMILES
1,0.125 µg/mL,"CNCc1nc2cc(F)c3c(c2[nH]1)CC(CN1CCC2(CC1)CN(c1cnc4c(n1)NC(=O)CO4)C(=O)O2)C3 (stereo not drawn) [Example 92, 6-[8-[[5-fluoro-2-(methylaminomethyl)-1,6,7,8-tetrahydrocyclopenta[e]benzimidazol-7-yl]methyl]-2-oxo-1-oxa-3,8-diazaspiro[4.5]decan-3-yl]-4H-pyrazino[2,3-b][1,4]oxazin-3-one]"
2,1 µg/mL,"CN[C@H](C)C(=O)NCc1nc2cc3c(c(F)c2o1)CC(CN1CCC2(CC1)CN(c1cnc4c(n1)NC(=O)CO4)C(=O)O2)C3 (stereo partly drawn) [Example 169, (2R)—N-[[8-Fluoro-6-[[2-oxo-3-(3-oxo-4H-pyrazino[2,3-b][1,4]oxazin-6-yl)-1-oxa-3,8-diazaspiro[4.5]decan-8-yl]methyl]-6,7-dihydro-5H-cyclopenta[f][1,3]benzoxazol-2-yl]methyl]-2-(methylamino)propanamide]"
3,0.25 µg/mL,"CNC(CO)c1nc2c(F)c3c(c(F)c2[nH]1)CC(CN1CCC2(CC1)CN(c1cnc4c(n1)NC(=O)CO4)C(=O)O2)C3 (single isomer, unassigned) [Example 66, 6-[8-[[4,8-Difluoro-2-[2-hydroxy-1-(methylamino)ethyl]-3,5,6,7-tetrahydrocyclopenta[f]benzimidazol-6-yl]methyl]-2-oxo-1-oxa-3,8-diazaspiro[4.5]decan-3-yl]-4H-pyrazino[2,3-b][1,4]oxazin-3-one]"
4,0.25 µg/mL,"CNCc1nc2cc3c(c(F)c2o1)CC(CN1CCC2(CC1)CN(c1cnc4c(n1)NC(=O)CO4)C(=O)O2)C3 (single isomer, unassigned) [Example 95, 6-[8-[[8-fluoro-2-(methylaminomethyl)-6,7-dihydro-5H-cyclopenta[f][1,3]benzoxazol-6-yl]methyl]-2-keto-1-oxa-3,8-diazaspiro[4.5]decan-3-yl]-4H-pyrazino[2,3-b][1,4]oxazin-3-one]"
5,0.25 µg/mL,"O=C(O)C(F)(F)F.O=C1COc2ncc(N3CC4(CCN(CC5Cc6cc7nc(CNC(=O)[C@H]8CCCN8)[nH]c7c(F)c6C5)CC4)OC3=O)nc2N1 (stereo partly drawn) [Example 161, (2R)-N-[[8-fluoro-6-[[2-oxo-3-(3-oxo-4H-pyrazino[2,3-b][1,4]oxazin-6-yl)-1-oxa-3,8-diazaspiro[4.5]decan-8-yl]methyl]-1,5,6,7-tetrahydrocyclopenta[f]benzimidazol-2-yl]methyl]pyrrolidine-2-carboxamide; 2,2,2-trifluoroacetic acid]"
6,0.125 µg/mL,"O=C1COc2ncc(N3CC4(CCN(CC5Cc6c(c(F)c7[nH]c([C@H]8CCCN8)nc7c6F)C5)CC4)OC3=O)nc2N1 [Example 24, 6-[8-[[4,8-difluoro-2-[(2R)-pyrrolidin-2-yl]-3,5,6,7-tetrahydrocyclopenta[f]benzimidazol-6-yl]methyl]-2-oxo-1-oxa-3,8-diazaspiro[4.5]decan-3-yl]-4H-pyrazino[2,3-b][1,4]oxazin-3-one]"
7,0.5 µg/mL,"CN(C)CC(=O)NCCn1nnc2c(F)c3c(c(F)c21)CC(CN1CCC2(CC1)CN(c1cnc4c(n1)NC(=O)CO4)C(=O)O2)C3 (stereo not drawn) [Example 168, N-[2-[4,8-difluoro-6-[[2-oxo-3-(3-oxo-4H-pyrazino[2,3-b][1,4]oxazin-6-yl)-1-oxa-3,8-diazaspiro[4.5]decan-8-yl]methyl]-6,7-dihydro-5H-cyclopenta[f]benzotriazol-1-yl]ethyl]-2-(dimethylamino)acetamide]"
8,0.5 µg/mL,"O=C1COc2ncc(N3CC4(CCN(CC5Cc6c(c(F)c7nn(CCNC(=O)[C@H]8C[C@H](O)CN8)nc7c6F)C5)CC4)OC3=O)nc2N1 [Example 163, (2R,4S)-N-[2-[4,8-difluoro-6-[[2-oxo-3-(3-oxo-4H-pyrazino[2,3-b][1,4]oxazin-6-yl)-1-oxa-3,8-diazaspiro[4.5]decan-8-yl]methyl]-6,7-dihydro-5H-cyclopenta[f]benzotriazol-2-yl]ethyl]-4-hydroxy-pyrrolidine-2-carboxamide]"

# The remaining lines, values behind:
row,SMILES,MIC
1,"O=C1COc2ncc(N3CC4(CCN(CC5Cc6cc7nc(CN8CC(O)C8)oc7c(F)c6C5)CC4)OC3=O)nc2N1 (single isomer, unassigned) [Example 98, 6-[8-[[8-fluoro-2-[(3-hydroxyazetidin-1-yl)methyl]-6,7-dihydro-5H-cyclopenta[f][1,3]benzoxazol-6-yl]methyl]-2-oxo-1-oxa-3,8-diazaspiro[4.5]decan-3-yl]-4H-pyrazino[2,3-b][1,4]oxazin-3-one]",0.5 µg/mL
2,"CNCCc1nc2c(F)c3c(c(F)c2n1C)CC(CN1CCC2(CC1)CN(c1cnc4c(n1)NC(=O)CO4)C(=O)O2)C3.O=C(O)C(F)(F)F (stereo not drawn) [Example 20, 6-[8-[[4,8-difluoro-1-methyl-2-[2-(methylamino)ethyl]-6,7-dihydro-5H-cyclopenta[f]benzimidazol-6-yl]methyl]-2-oxo-1-oxa-3,8-diazaspiro[4.5]decan-3-yl]-4H-pyrazino[2,3-b][1,4]oxain-3-one; 2,2,2-trifluoroacetic acid]",0.25 µg/mL
3,"NCCn1nc2cc3c(c(F)c2n1)CC(CN1CCC2(CC1)CN(c1cnc4c(n1)NC(=O)CO4)C(=O)O2)C3 (stereo not drawn) [Example 74, 6-[8-[[2-(2-aminoethyl)-8-fluoro-6,7-dihydro-5H-cyclopenta[f]benzotriazol-6-yl]methyl]-2-oxo-1-oxa-3,8-diazaspiro[4.5]decan-3-yl]-4H-pyrazino[2,3-b][1,4]oxazin-3-one]",0.06 µg/mL
4,"CN(CCn1nc2c(F)c3c(c(F)c2n1)CC(CN1CCC2(CC1)CN(c1cnc4c(n1)NC(=O)CO4)C(=O)O2)C3)C(=O)CN.O=CO [Example 165, 2-Amino-N-[2-[4,8-difluoro-6-[[2-oxo-3-(3-oxo-4H-pyrazino[2,3-b][1,4]oxazin-6-yl)-1-oxa-3,8-diazaspiro[4.5]decan-8-yl]methyl]-6,7-dihydro-5H-cyclopenta[f]benzotriazol-2-yl]ethyl]-N-methyl-acetamide;formic acid]",0.5 µg/mL
5,"O=C1COc2ncc(N3CC4(CCN(CC5Cc6cc7nn(C8CNC8)nc7c(F)c6C5)CC4)OC3=O)nc2N1 (single isomer, unassigned) [Example 109, 6-[2-oxo-8-[[2-(azetidin-3-yl)-8-fluoro-6,7-dihydro-5H-cyclopenta[f]benzotriazol-6-yl]methyl]-1-oxa-3,8-diazaspiro[4.5]decan-3-yl]-4H-pyrazino[2,3-b][1,4]oxazin-3-one]",0.5 µg/mL
6,"CNCCNc1cnc2c(F)c3c(c(F)c2n1)CC(CN1CCC2(CC1)CN(c1cnc4c(n1)NC(=O)CO4)C(=O)O2)C3 (stereo not drawn) [Example 40, 6-[8-[[5,9-difluoro-3-[2-(methylamino)ethylamino]-7,8-dihydro-6H-cyclopenta[g]quinoxalin-7-yl]methyl]-2-oxo-1-oxa-3,8-diazaspiro[4.5]decan-3-yl]-4H-pyrazino[2,3-b][1,4]oxazin-3-one]",0.5 µg/mL
7,"C[C@@H](N)c1nc2cc3c(c(F)c2[nH]1)CC(CN1CCC2(CC1)CN(c1cnc4c(n1)NC(=O)CO4)C(=O)O2)C3 (stereo partly drawn) [Example 45, 6-[8-[[2-[(1R)-1-aminoethyl]-8-fluoro-1,5,6,7-tetrahydrocyclopenta[f]benzimidazol-6-yl]methyl]-2-oxo-1-oxa-3,8-diazaspiro[4.5]decan-3-yl]-4H-pyrazino[2,3-b][1,4]oxazin-3-one]",0.125 µg/mL
8,"CN(C)CCn1nnc2c(F)c3c(c(F)c21)CC(CN1CCC2(CC1)CN(c1cnc4c(n1)NC(=O)CO4)C(=O)O2)C3 (stereo not drawn) [Example 64, 6-[8-[[1-[2-(Dimethylamino)ethyl]-4,8-difluoro-6,7-dihydro-5H-cyclopenta[f]benzotriazol-6-yl]methyl]-2-oxo-1-oxa-3,8-diazaspiro[4.5]decan-3-yl]-4H-pyrazino[2,3-b][1,4]oxazin-3-one]",0.25 µg/mL

# Same assay, conditions: strain Escherichia coli ATCC 25922, 18-24 hours at 35±2° C., lowest concentration for complete growth inhibition (no visible growth)
row,Escherichia coli growth inhibition MIC,SMILES
1,0.125 µg/mL,"NCCn1nnc2cc3c(c(F)c21)CC(CN1CCC2(CC1)CN(c1cnc4c(n1)NC(=O)CO4)C(=O)O2)C3 (single isomer, unassigned) [Example 82, 6-[2-oxo-8-[[1-(2-aminoethyl)-8-fluoro-6,7-dihydro-5H-cyclopenta[f]benzotriazol-6-yl]methyl]-1-oxa-3,8-diazaspiro[4.5]decan-3-yl]-4H-pyrazino[2,3-b][1,4]oxazin-3-one]"

# Same assay, conditions: strain Escherichia coli ATCC 25922, 18-24 hours at 35±2° C., lowest concentration for complete growth inhibition (no visible growth), formic acid
row,Escherichia coli growth inhibition MIC,SMILES
1,0.125 µg/mL,"O=C1COc2ncc(N3CC4(CCN(CC5Cc6c(c(F)c7c(nnn7C7CNC7)c6F)C5)CC4)OC3=O)nc2N1.O=CO (single isomer, unassigned) [Example 121, 6-[8-[[1-(azetidin-3-yl)-4,8-difluoro-6,7-dihydro-5H-cyclopenta[f]benzotriazol-6-yl]methyl]-2-oxo-1-oxa-3,8-diazaspiro[4.5]decan-3-yl]-4H-pyrazino[2,3-b][1,4]oxazin-3-one; formic acid]"
